Results on one molecule are retold here after article PMC7714071, “Interaction of amyloid beta with humanin and acetylcholinesterase is modulated by ATP” (FEBS Open Bio, 2020).

In data set [1] the test system is AChE-Aβ complex (A549 cell-conditioned media). The experiment in a line: ELISA, AChE found in a complex with Aβ in A549 cell-conditioned media. Format: binding, human. As for the experimental part:
Human NSCLC cell lines, A549 (ATCC CCL‐185) and H1299 (ATCC CRL‐5803), were purchased from the American Type Culture Collection (ATCC, Manassas, VA, USA). Cells were seeded as we reported earlier in 5 mL HyClone Dulbecco's modified Eagle's medium/nutrient mixture F‐12 (DMEM/F12) (GE Healthcare Life Sciences, Pittsburgh, PA, USA), supplemented with 10% Fetalgro bovine growth serum (FBS; RMBIO, Missoula, MT, USA), 50 U·mL^−1 penicillin, and […] streptomycin (Invitrogen, Life Technologies, Carlsbad, CA, USA) in 25‐cm^2 tissue culture flasks, and allowed to grow overnight in an incubator at 37 °C, 95% humidity, and 5% CO2. The cells were counted after trypan blue staining, with a hemocytometer.
ELISAs were carried out as we previously reported. Nunc MaxiSorp 96‐well flat bottom plate (Thermo Fisher) wells were coated with samples as indicated. The plates were incubated overnight at 4 °C on a shaker to allow binding of the samples to the plate wells. After the incubation, the wells were washed 4× with TBST, filled with 400 µL blocking buffer (110 mM KCl, 5 mM NaHCO3, 5 mM MgCl2, 1 mM EGTA, 0.1 mM CaCl2, 20 mM HEPES, 1% BSA, pH 7.4), and incubated with shaking overnight at 4 °C. […] TBST was then used to wash the wells 4× before proceeding in one of two ways: (a) biotinylated samples were analyzed by adding 100 µL streptavidin–HRP conjugate in TBST (1 : 2500 dilution) to the samples followed by incubation for 3 h at RT on a shaker, or (b) samples without biotin were analyzed by adding 100 µL TBST containing the primary antibody as per the manufacturer's recommendation, incubating for 3 h at RT on a shaker, followed by washing the wells 4× with TBST. […] The reaction was stopped with 100 µL 2 M H2SO4 after incubating at RT for 0.5–15 min, resulting in a yellow color change, measured by absorbance at 450 nm. […] Before analysis, the OD from the data was corrected for nonspecific binding by subtracting the mean background absorbance for the negative controls. […] Statistical analysis was determined by the […] […] Data were expressed as the mean ± SD. […]
Background: An ELISA detects its analyte on a solid surface through an enzyme-linked reagent.

The subject of data set [2] is Aβ cytotoxicity. As to conditions: cited from earlier work. The source says: Almost all types of cells produce amyloid beta (Aβ), a peptide well recognized for its role in the development and progression of different stages of Alzheimer's disease (AD). The Aβ peptide is ~ 4 kDa and derived from the sequential processing of the higher molecular weight amyloid precursor protein by two membrane‐bound endoproteases, β‐ and γ‐secretase. Different C‐terminal Aβ heterogeneity results from processing by γ‐secretase, where Aβ40 represents the most abundant isoform (~ 90%) as compared to Aβ42 (~ 10%). Self‐assembled Aβ40/42 peptides into amyloid fib ... || Soluble oligomers of proteins implicated in different diseases are primarily thought to be the main toxic form as opposed to the larger fibrillar assemblies. Aβ regions containing Tyr and Ser (H6DSGY10 and G25SNKG29) (Fig. 1) along with post‐translational modifications of these regions, have been implicated in misfolding, oligomerization, or fibril formation of Aβ [5, 10, 11, 16, 41]. […] Aβ proteins a ... || Acetylcholinesterase (AChE) is an enzyme known for its role in terminating acetylcholine‐mediated neurotransmission at the synaptic cleft. The majority of the cortical AChE in the Alzheimer's brain is mainly associated with the amyloid core of senile plaques. […]

Take `Nc1ncnc2c1ncn2[C@@H]1O[C@H](COP(=O)(O)OP(=O)(O)OP(=O)(O)O)[C@@H](O)[C@H]1O` [ATP, Adenosine triphosphate]: the “decrease in levels of AChE found in a complex with Aβ” value in data set [1] (100 μM ATP, 6E10 or 82E1 on wells, three experiments in triplicate, Fig. 5A) was ~ 2.3 fold. Moreover, the “levels of AChE found in a complex with Aβ” value in data set [1] (1 mM ATP, 6E10 or 82E1 on wells, Fig. 5A) is given as “decreased to almost blank levels”. Besides, the “Aβ detected on anti-AChE wells upon ATP addition” value in data set [1] (anti-AChE on wells, Aβ detected by 6E10 or 82E1, Fig. 5B) was “comparable decrease in the levels of Aβ”. Further, the “effect on Aβ-mediated cytotoxicity” value in data set [2] is on record as “protective”.
